Toxic doses and inconclusive results are not listed.
Assays:
[1] = tested on: BDF1 mice, P388 leukemia ip; assay: NCI In Vivo Anticancer Drug Screen. Data for tumor model P388 Leukemia (intraperitoneal) in B6D2F1 (BDF1) mice; settings: endpoint: mean survival time, higher = longer survival
Procedure, shortened: (§1)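 Mice carrying the transplantable tumour receive compound or vehicle. Survival is followed in each arm, and the treated measure is divided by the vehicle measure.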

[2] = tested on: BDF1 mice, P388 leukemia ip, median survival T/C; assay: as above; settings: endpoint: median survival time, higher = longer survival
Procedure, shortened: as §1

[3] = dose: 12.5 mg/kg/injection, schedule: Q01DX009 (ip), vehicle: saline with Tween-80

SMILES: CC1(C)C(=O)C(O)=C[C@H]2C1=CC[C@@H]1[C@]2(C)C(=O)C[C@]2(C)[C@@H]([C@@](C)(O)C(=O)CC(O)C(C)(C)O)C(O)C[C@@]12C (some centres undefined)
- T/C ([1]; dose: 18.0 mg/kg/injection, schedule: Q01DX010 (ip), vehicle: carboxymethylcellulose (CMC)): 99 % of control

SMILES: C/C=C/c1cc2c(c(=O)o1)C(=O)[C@@H](O)[C@H](C)O2
- T/C ([2]; dose: 11.0 mg/kg/injection, schedule: Q01DX010 (ip), vehicle: other): 120 % of control
- T/C ([2]; dose: 25.0 mg/kg/injection, schedule: Q01DX010 (ip), vehicle: other): 154 % of control
- T/C ([2]; dose: 50.0 mg/kg/injection, schedule: Q01DX010 (ip), vehicle: other): 150 % of control
- T/C ([2]; dose: 100.0 mg/kg/injection, schedule: Q01DX010 (ip), vehicle: other): 150 % of control
- T/C ([1]; dose: 25.0 mg/kg/injection, schedule: Q01DX010 (ip), vehicle: carboxymethylcellulose (CMC)): 119 % of control

SMILES: CCOC(CN(Cc1ccc(OCc2ccccc2)c(OC)c1)S(=O)(=O)c1ccc(C)cc1)OCC
- T/C ([1]; dose: 25.0 mg/kg/injection, schedule: Q01DX009 (ip), vehicle: water): 93 % of control
- T/C ([1]; dose: 50.0 mg/kg/injection, schedule: Q01DX009 (ip), vehicle: water): 97 % of control
- T/C ([1]; dose: 100.0 mg/kg/injection, schedule: Q01DX009 (ip), vehicle: water): 93 % of control
- T/C ([1]; dose: 200.0 mg/kg/injection, schedule: Q01DX009 (ip), vehicle: water): 90 % of control

SMILES: CC1=CC(=O)NC1=O
- T/C ([2]; dose: 4.3 mg/kg/injection, schedule: Q01DX009 (ip), vehicle: saline): 114 % of control
- T/C ([2]; dose: 6.4 mg/kg/injection, schedule: Q01DX009 (ip), vehicle: saline): 102 % of control
- T/C ([2]; dose: 9.6 mg/kg/injection, schedule: Q01DX009 (ip), vehicle: saline): 117 % of control
- T/C ([2]; dose: 14.0 mg/kg/injection, schedule: Q01DX009 (ip), vehicle: saline): 123 % of control

SMILES: COc1cc2c(c(OC)c1OC)CCC1(C)C(=O)NN=C21 (centres undefined)
- T/C ([2]; dose: 100.0 mg/kg/injection, schedule: Q01DX009 (ip), vehicle: Klucel (hydroxypropylcellulose) (HPC)): 108 % of control
- T/C ([2]; dose: 200.0 mg/kg/injection, schedule: Q01DX009 (ip), vehicle: Klucel (hydroxypropylcellulose) (HPC)): 106 % of control

SMILES: O=C(CCCCl)CC(O)(C(F)(F)F)C(F)(F)F
- T/C [2, 3]: 95 % of control
- T/C ([2]; dose: 25.0 mg/kg/injection, schedule: Q01DX009 (ip), vehicle: saline with Tween-80): 100 % of control
- T/C ([2]; dose: 50.0 mg/kg/injection, schedule: Q01DX009 (ip), vehicle: saline with Tween-80): 115 % of control
- T/C ([2]; dose: 100.0 mg/kg/injection, schedule: Q01DX009 (ip), vehicle: saline with Tween-80): 104 % of control

SMILES: Cc1cc(O)n(Cc2ccccc2)c(=O)c1
- T/C ([2]; dose: 100.0 mg/kg/injection, schedule: Q04DX003 (ip), vehicle: saline with Tween-80): 102 % of control
- T/C ([2]; dose: 200.0 mg/kg/injection, schedule: Q04DX003 (ip), vehicle: saline with Tween-80): 87 % of control
- T/C ([2]; dose: 400.0 mg/kg/injection, schedule: Q04DX003 (ip), vehicle: saline with Tween-80): 107 % of control

SMILES: O=c1nc(Oc2ccccc2)nc2ncccn12
- T/C [2, 3]: 121 % of control

From PubChem BioAssay AID328 (DTP/NCI, 2004)
